Laboratory results reported in ChEMBL document CHEMBL1828496 (Eur J Med Chem, 2011).

How the values were obtained:
[1] = biological target: T1, Amine oxidase [flavin-containing] B (Homo sapiens, UniProt P27338); experiment: Inhibition of human recombinant MAO-B expressed in baculovirus infected BTI-TN-5B1-4 cells assessed as production of hydrogen peroxide from p-tyramine at 1 mM after 15 mins by microplate fluorescence assay; conditions: bti-tn-5b1-4, 0.25 h, 1000 µM
T1 sequence (P27338 whole entry): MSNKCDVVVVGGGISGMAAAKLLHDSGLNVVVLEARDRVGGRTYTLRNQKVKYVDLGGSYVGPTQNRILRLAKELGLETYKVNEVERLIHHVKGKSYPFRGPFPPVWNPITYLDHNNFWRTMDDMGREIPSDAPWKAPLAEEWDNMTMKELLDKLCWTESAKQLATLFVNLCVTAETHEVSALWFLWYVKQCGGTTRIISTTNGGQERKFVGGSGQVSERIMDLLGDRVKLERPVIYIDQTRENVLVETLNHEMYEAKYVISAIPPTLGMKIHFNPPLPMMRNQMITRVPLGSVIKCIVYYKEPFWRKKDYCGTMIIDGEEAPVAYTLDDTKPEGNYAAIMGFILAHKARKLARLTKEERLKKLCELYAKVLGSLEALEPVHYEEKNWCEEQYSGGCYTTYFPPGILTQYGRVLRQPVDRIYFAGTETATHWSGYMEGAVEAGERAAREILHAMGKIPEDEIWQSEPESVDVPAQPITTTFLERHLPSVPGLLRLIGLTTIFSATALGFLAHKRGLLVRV

[2] = biological target: T2, Amine oxidase [flavin-containing] A (Homo sapiens, UniProt P21397); experiment: Inhibition of human recombinant MAO-A expressed in baculovirus infected BTI-TN-5B1-4 cells assessed as production of hydrogen peroxide from p-tyramine after 15 mins by microplate fluorescence assay
T2 sequence (P21397 whole entry): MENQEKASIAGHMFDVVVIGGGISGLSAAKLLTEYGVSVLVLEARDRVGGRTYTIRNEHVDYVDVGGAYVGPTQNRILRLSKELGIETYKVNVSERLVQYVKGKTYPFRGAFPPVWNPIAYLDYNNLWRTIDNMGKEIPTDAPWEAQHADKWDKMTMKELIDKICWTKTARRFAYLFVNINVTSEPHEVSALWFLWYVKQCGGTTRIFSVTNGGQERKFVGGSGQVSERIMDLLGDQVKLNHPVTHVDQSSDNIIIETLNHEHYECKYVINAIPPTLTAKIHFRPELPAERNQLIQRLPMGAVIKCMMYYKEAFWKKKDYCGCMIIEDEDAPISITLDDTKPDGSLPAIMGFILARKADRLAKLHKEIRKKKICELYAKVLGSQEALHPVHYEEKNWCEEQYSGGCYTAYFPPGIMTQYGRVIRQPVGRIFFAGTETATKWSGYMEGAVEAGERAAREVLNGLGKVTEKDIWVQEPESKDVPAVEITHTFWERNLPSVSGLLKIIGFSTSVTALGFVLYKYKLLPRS

[3] = biological target: T1, Amine oxidase [flavin-containing] B; experiment: biochemical; assay type: cell-based, BTI-TN-5B1-4
Description: Inhibition of human recombinant MAO-B expressed in baculovirus infected BTI-TN-5B1-4 cells assessed as production of hydrogen peroxide from p-tyramine after 15 mins by microplate fluorescence assay

Homo sapiens = organism: Homo sapiens; experiment: Selectivity ratio of IC50 for human recombinant MAO-A to IC50 for human recombinant MAO-B
[4] = Hydrolytic stability of the compound in water after 1 to 24 hrs by NMR spectroscopic analysis; assay type: physicochemical
[5] = Hydrolytic stability of the compound in dimethyl sulfoxide after 1 to 24 hrs by NMR spectroscopic analysis; assay type: physicochemical
[6] = Hydrolytic stability of the compound in phosphate buffer at pH 7.4 after 1 to 24 hrs by NMR spectroscopic analysis; assay type: physicochemical
[7] = Hydrolytic stability of the compound in acetonitrile after 1 to 24 hrs by NMR spectroscopic analysis; assay type: physicochemical
[8] = biological target: T2, Amine oxidase [flavin-containing] A; experiment: Inhibition of human recombinant MAO-A expressed in baculovirus infected BTI-TN-5B1-4 cells assessed as production of hydrogen peroxide from p-tyramine at 100 uM after 15 mins by microplate fluorescence assay; conditions: human, bti-tn-5b1-4, 0.25 h, 100 µM
[9] = biological target: T1, Amine oxidase [flavin-containing] B; experiment: Inhibition of human recombinant MAO-B expressed in baculovirus infected BTI-TN-5B1-4 cells assessed as production of hydrogen peroxide from p-tyramine at 100 uM after 15 mins by microplate fluorescence assay; conditions: human, bti-tn-5b1-4, 0.25 h, 100 µM

| SMILES | inhibition (INH) [1] | IC50 [2] [µM] | IC50 [3] [µM] | Ratio IC50 (Homo sapiens) | Stability [4] | Stability [5] | Stability [6] | Stability [7] | inhibition (INH) [8] | inhibition (INH) [9] |
| --- | --- | --- | --- | --- | --- | --- | --- | --- | --- | --- |
| O=C(NCCN1CCOCC1)c1ccc(Cl)cc1 [MOCLOBEMIDE] | Not Active | – | – | – | – | – | – | – | – | – |
| O=C(NNc1ccccc1)c1cc2ccccc2oc1=O | – | 41.4 | 4.52 | 9.16 | Stable | Stable | Stable | Stable | – | – |
| CCOC(=O)c1cc2ccc(OC3CCCCCC3)cc2oc1=O | – | 46.4 | 0.0215 | 2160 | Stable | Stable | Stable | Stable | – | – |
| CCOC(=O)c1cc2cc(I)cc(I)c2oc1=O | – | – | – | – | Stable | Stable | Stable | Stable | Not Active | Not Active |
